The test system of data set [1] is HepG2.117 cells. Description: Cell viability by CellTiter-Glo 2.0 (intracellular ATP) in HepG2.117 cells. Format: cell-based. As to conditions: CellTiter-Glo 2.0, 3 days incubation. How it is done:
(§1) The following assay procedure describes the HBV antiviral assay, using HepG2.117 cells, which carry a stably integrated genotype D HBV genome under the control of a Tet-off promoter, and intracellular HBV DNA quantification as endpoint. Cell viability is assessed in parallel by measuring the intracellular ATP content using CellTiter-Glo 2.0 (Promega).
(§2) On day 1, medium is removed from each well, the test articles are diluted in culture medium without doxcycyline and 100 μL was added to cell culture wells (9 concentrations, 4-fold dilution). For each plate, 6 untreated (merely DMSO) wells are included. The final concentration of DMSO in the culture medium is 2%. Each plate is prepared in duplicate (one for HBV DNA extraction, one for CellTiter-Glo 2.0 measurement). The cells are incubated at 37° C. and 5% CO2 for 3 days.
(§3) On day 4, cell viability is assessed using CellTiter-Glo 2.0 and cell lysates are prepared for HBV DNA extraction and subsequent quantification by qPCR.
Using the other plates, the cell viability is quantified by CellTiter-Glo 2.0 according to the manufacturer's manual. In brief, 100 μL of reagent solution is added to the culture plates and shaken for 2′. The plates are incubated at room temperature for 10 min and luminescence signal is subsequently measured on a VarioSkan Lux (ThermoFisher) plate reader.
(§4) Cell viability is calculated as follows: % Cell viability=(luminescence value of test sample)/(average luminescence value of 2% DMSO control)×100%. HBV DNA inhibition was calculated as follows: 100−(HBV DNA copy number of test sample)/(average HBV DNA copy number of 2% DMSO control)×100%. No normalization to entecavir is required due to the excellent dynamic window of this assay. The CC50, EC50 and EC90 values were determined by dose-response curves fitted using non-linear regression.
A general note: ATP-based viability assays read luminescence as a measure of living cells.

Data set [2] concerns HBV. Description: HBV-DNA antiviral assay using HepG2.117 cells (intracellular HBV DNA by qPCR). As to conditions: HBV DNA inhibition, HepG2.117 cells, 3 days incubation; read-out: EC50. Type of data set: cell-based, HBV genotype D. On the procedure:
as §1
On day 0, HepG2.117 cells (which are maintained in routine cell culture with doxycycline present in the medium at a final concentration of 1 μg/mL) are seeded in 96-well plates (white with clear bottom) at a density of 2.0×10^4 cells/well (0.1 mL/well) in medium without doxycycline to induce pgRNA transcription and subsequent formation of HBV particles. The cells are incubated at 37° C. and 5% CO2.
as §2, §3
Medium is removed from each well and 100 μL of 0.33% NP-40 in H2O was added to each well. Plates are sealed, incubated at 4° C. for 5 mins, vortexed extensively and centrifuged briefly. Next, 35 μL of lysate is added to 65 μL QuickExtract DNA Extraction Solution (Epicentre) in a PCR plate for each well. PCR plate is incubated at 65° C. for 6 mins, 98° C. for 2 mins and finally cooled to 4° C. HBV DNA is then quantified by qPCR with HBV-specific primers and probes as specified in Table 2 using the Bio-Rad SSOAdvanced Universal Probes Supermix on a CFX96 machine (Bio-Rad). The PCR cycle program consisted of 95° C. for 3 mins, followed by 40 cycles at 95° C. for 10 sec and 60° C. for 30 sec.
A DNA standard is prepared by dilution of an IDT gBlock corresponding to the amplicon with concentrations ranging from 10^A2 to 10^A8 copies/input (i.e. per 4 μL) and used to generate a standard curve by plotting Cq values vs. HBV DNA standard concentration. The quantity of HBV DNA in each sample is determined by interpolating from the standard curve.
as §4
Background: Real-time PCR tracks product formation cycle by cycle.

The term CC50 denotes the concentration giving 50% cytotoxicity. For orientation: EC50 means the concentration at which the effect is half-maximal. `CNC(=O)c1ccc(-n2c(NCc3ccccc3-c3ccccn3)nc3c(c2=O)C[C@@H](C)N(C(=O)c2ccc(Br)c(C(F)(F)F)c2)C3)c(Cl)c1` (single isomer, unassigned) [Compound 1b]: in data set [1], the CC50 is more than 50 µM. In data set [2], the EC50 is less than 0.05 µM.

`CNC(=O)c1ccc(-n2c([C@@H]3CCCN3C(C)C)nc3c(c2=O)CC(C)N(C(=O)c2ccc(Br)c(C(F)(F)F)c2)C3)cc1` (single isomer, unassigned) [Compound 11b] yielded a CC50 in data set [1] of more than 50 µM. In data set [2], the EC50 is 0.5 to 5 µM.

(Values after patent US11952374B2, “Bicyclic compounds” (Aligos Therapeutics, Inc., priority 2020, dated 2024).)
